Broadly, the EC50 is the concentration that produces a half-maximal response.

Each structure is given as a SMILES string.

The assay has as its target T1, Protease-activated receptor 1 (PAR1) (Homo sapiens, UniProt P25116).
T1 construct: gene F2R; endogenous PAR1 in HT29 cells
T1 sequence (P25116 42-425): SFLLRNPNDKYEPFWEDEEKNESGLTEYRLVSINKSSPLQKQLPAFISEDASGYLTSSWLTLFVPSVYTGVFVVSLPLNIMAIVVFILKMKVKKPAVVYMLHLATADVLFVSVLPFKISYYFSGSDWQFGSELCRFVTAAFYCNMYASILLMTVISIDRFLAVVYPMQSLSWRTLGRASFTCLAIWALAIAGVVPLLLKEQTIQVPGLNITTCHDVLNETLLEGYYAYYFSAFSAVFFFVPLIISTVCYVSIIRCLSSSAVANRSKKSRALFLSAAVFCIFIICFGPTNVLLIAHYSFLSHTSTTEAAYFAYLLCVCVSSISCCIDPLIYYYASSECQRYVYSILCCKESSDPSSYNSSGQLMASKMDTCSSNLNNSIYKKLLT
Nature of the assay: Fluo-4 intracellular calcium, potentiation of thrombin or PAR1-AP response; blocked by vorapaxar. Type of assay: cell-based. (Calcium assays in cells follow changes in intracellular calcium, usually with a dye or a luminescent sensor.)

As to `C#C[C@]1(O)C=C[C@H]2[C@@H]3CCC4=CC(=O)CC[C@@H]4[C@H]3CC[C@@]21CC` [gestodene], the EC50 came out at 4.54 ± 0.27 µM.

The record behind these values is PMC11310598, “Gestodene, a novel positive allosteric modulator of PAR1, enhances PAR1-mediated human platelet aggregation” (Frontiers in Pharmacology, 2024).
